Data: patent publication US20110009379A1, “INDOLINONE COMPOUND” (ASTELLAS PHARMA INC., priority 2008, published 2011)

Columns and labels:
human TRPA1 = molecular target: T1, human TRPA1 (Homo sapiens, UniProt O75762, K186N/R3C/R58T); test: Measurement of TRPA1 activation activity (intracellular calcium, FLIPR, HEK293 cells stably expressing human TRPA1); type: cell-based; conditions: change of intracellular calcium concentration
T1 construct: expressed in transfected cells; pcDNA3.1(+) vector)
Method: 10 ng of Human brain mRNA (Clontech Co.) was treated with DNase, and then was reverse transcribed using kit for reverse transcription-polymerase chain reaction (RT-PCR) (SUPERSCRIPT First-Strand Synthesis System for RT-PCR; Invitrogen Co.) to synthesize the first strand cDNA. PCR using a hot start method was performed using the first strand cDNA as a template and Taq DNA polymerase (LA Taq DNA polymerase; TAKARA SHUZO). The PCR was performed using oligonucleotides consisting of the nucleotide sequences, represented by sequence number 2 as a sense primer and sequence number 3 as an antisense primer, in which firstly, heat denaturation was performed at 98° C. (1 minute), and then a cycle of 98° C. (15 seconds)/56° C. (30 seconds)/72° C. (5 minutes) was repeated 35 times. As a result, a DNA fragment of about 3.3 kbp was amplified.
The DNA fragment was cloned to pCR-TOPO vector using a cloning kit (TOPO XL PCR Cloning Kit; Invitrogen). The obtained plasmid DNA was digested with restriction enzymes KpnI and HindIII, and then was cloned using plasmid pcDNA 3.1(+)(Invitrogen). In this connection, the plasmid pcDNA 3.1(+) has a promoter sequence derived from cytemegalovirus, and can be used in order to express a protein in animal cells.
The nucleotide sequences of the obtained clones were analyzed using DNA sequencer (ABI3700 DNA Sequencer; Applied Biosystems) by dideoxyterminator method, and the nucleotide sequence represented by sequence number 1 was obtained. Furthermore, when these sequences were translated to amino acid sequences, the amino acid sequence represented by sequence number 1 was obtained.
After constructing the expression vector of the human TRPA1 gene, selection by G418 was performed from the HEK293 cells which temporarily expressed TRPA1 by transfection operation to obtain cells stably expressing TRPA1. The above operation was performed according to known methods (experimental medicine supplementary volume, “Cultivation Cell Experimental Methods for Molecular Biology Study” published by Toshio Kuroki, Namho Hue and Kazuhiro Chida, 1995, Yodosha).
In order to measure the change of the intracellular calcium concentration in the cells stably expressing the human TRPA1, the change of the intracellular calcium concentration when a compound to be tested was added was measured using FLIPR (Molecular Device).
In order to measure the change of the intracellular calcium concentration with FLIPR, the following pretreatment was performed. First of all, assay buffer was prepared which was for adding fluorescent pigment Fluo4-AM (DOJIN) to the cells or washing the cells just before performing FLIPR assay. To a solution (hereinafter, HBSS/HEPES solution) where 20 mL of 1M HEPES (pH 7.4; Invitrogen) was added to 1000 mL of a physiological saline buffer (Hank's Balanced Salt Solution; HBSS) (Invitrogen), was added 10 mL of a solution where 710 mg of probenecid (Sigma) was dissolved into 5 mL of 1M aqueous NaOH solution and 5 mL of HBSS/HEPES solution was further added and mixed, and the assay buffer was thus prepared. Then, 50 μg of Fluo4-AM was dissolved into 22 μL of DMSO (DOJIN), the same amount of 20% pluronic acid (Molecular Probes) was added thereto and mixed, and the mixture was added to the 10.6 mL of the assay buffer where 105 μL of fetal bovine serum was added, to prepare a fluorescent pigment solution. The medium of the cells stably expressing TRPA1 was removed, 100 μL per well of the fluorescent pigment solution was dispensed immediately, followed by cultivation in a CO2 cultivator for 1 hour, and the fluorescent pigment was soaked in the cells. The cells after cultivation were washed using the assay buffer, followed by being set in FLIPR. Furthermore, a test sample, which was added to the cells stably expressing TRPA1, was prepared by using the assay buffer, and at the same time, was set in FLIPR. […]

Cytochrome P450(2D6) = Cytochrome P450(2D6) (Homo sapiens, UniProt P10635); test: Cytochrome P450(2D6) enzyme inhibition test; type: in vitro ADME; conditions: CYP2D6, fluorescent substrate 1.5 μmol/L, 37° C., 20 minutes
Method: The experiment was performed in accordance with the method of Crespi et al. (Analytical Biochemistry, 248, 188-190, 1997).
As a substrate, 3-[2-(N,N-diethyl-N-methylamino)ethyl]-7-methoxy-4-methyl coumarine (1.5 μmol/L) a compound to be tested (3.1×10^−7 to 2×10^−5 M) and an enzyme (2.5×10^−8 M) were incubated at 37° C. for 20 minutes in total of […] of 100 mM phosphorous buffer (pH=7.4) including 8.2 mM NADP+, 0.41 mM glucose-6-phosphate, 0.41 mM MgCl2 and 0.4 Units/mL glucose-6-phosphate dehydrogenase, using 96 well plates. Then, 0.5 M aqueous 2-amino-2-hydroxymethyl-1,3-propandiol solution containing 80% acetonitrile was added to stop the reaction, fluorescence intensity (excitation wavelength; 390 nm, fluorescent wavelength; 460 nm) was measured with a fluorescent plate reader. An inhibition ratio was calculated with the following formula, and the test compound concentration when the inhibition ratio is 50% (IC50) was obtained.
C1: fluorescence intensity in the presence of the test compound and enzyme at know concentrations, and the substrate
C0: fluorescence intensity in the presence of the enzyme and substrate, without the test compound
B1: fluorescence intensity of blank well

T1 sequence (O75762 whole entry R3C/R58T/K186N): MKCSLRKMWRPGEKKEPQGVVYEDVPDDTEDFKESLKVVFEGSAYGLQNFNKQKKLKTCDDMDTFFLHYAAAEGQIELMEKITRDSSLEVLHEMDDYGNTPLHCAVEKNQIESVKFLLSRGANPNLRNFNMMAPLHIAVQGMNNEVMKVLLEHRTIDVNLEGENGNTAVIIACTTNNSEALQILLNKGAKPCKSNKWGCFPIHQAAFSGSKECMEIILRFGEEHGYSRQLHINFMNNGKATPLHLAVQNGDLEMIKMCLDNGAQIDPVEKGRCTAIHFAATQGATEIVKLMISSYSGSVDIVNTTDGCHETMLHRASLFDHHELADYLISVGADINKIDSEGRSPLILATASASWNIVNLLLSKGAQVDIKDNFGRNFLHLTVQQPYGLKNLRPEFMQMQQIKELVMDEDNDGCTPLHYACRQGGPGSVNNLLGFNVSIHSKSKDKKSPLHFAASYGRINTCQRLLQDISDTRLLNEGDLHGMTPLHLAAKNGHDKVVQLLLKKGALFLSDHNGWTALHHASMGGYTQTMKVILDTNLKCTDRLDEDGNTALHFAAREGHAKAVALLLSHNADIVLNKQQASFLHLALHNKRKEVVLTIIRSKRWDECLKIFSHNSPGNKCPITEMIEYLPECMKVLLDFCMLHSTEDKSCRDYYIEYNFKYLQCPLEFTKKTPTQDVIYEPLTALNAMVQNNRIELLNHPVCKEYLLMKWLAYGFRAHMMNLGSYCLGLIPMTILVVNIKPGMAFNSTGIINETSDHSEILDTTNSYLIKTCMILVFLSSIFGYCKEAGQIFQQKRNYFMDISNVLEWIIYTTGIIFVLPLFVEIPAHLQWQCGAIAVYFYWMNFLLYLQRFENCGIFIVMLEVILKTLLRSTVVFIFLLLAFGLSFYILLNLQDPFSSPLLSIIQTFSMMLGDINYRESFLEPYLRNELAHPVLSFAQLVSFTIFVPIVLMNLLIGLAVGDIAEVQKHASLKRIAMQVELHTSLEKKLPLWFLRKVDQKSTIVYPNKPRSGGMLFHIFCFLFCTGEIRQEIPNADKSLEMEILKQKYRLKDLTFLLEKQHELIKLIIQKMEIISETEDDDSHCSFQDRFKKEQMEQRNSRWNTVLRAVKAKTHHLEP
Chain of Cytochrome P450(2D6) (P10635 whole entry): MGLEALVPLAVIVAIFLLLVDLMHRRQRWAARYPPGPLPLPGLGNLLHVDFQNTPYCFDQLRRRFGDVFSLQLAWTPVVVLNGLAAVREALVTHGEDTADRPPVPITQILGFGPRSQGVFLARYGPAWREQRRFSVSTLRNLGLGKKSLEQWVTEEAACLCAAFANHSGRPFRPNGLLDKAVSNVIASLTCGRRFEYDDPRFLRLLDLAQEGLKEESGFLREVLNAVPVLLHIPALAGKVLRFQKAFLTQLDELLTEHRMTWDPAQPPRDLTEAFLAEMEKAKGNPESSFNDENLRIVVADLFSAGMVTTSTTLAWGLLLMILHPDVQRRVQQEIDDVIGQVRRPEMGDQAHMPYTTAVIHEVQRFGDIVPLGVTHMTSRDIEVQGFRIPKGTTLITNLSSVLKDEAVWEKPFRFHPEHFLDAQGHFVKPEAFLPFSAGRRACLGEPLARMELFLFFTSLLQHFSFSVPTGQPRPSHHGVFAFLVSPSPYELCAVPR

- EC50 (human TRPA1): 0.51 µM
- IC50 (Cytochrome P450(2D6)): > 25 µM
SMILES: O=C(O)/C=C1/C(=O)N(CC2CCCC2)c2c(F)cccc21 [Example 28, (2E)-[1-(cyclopentylmethyl)-7-fluoro-2-oxo-1,2-dihydro-3H-indol-3-ylidene]acetic acid]
